24 compounds from patent US7772271B2 (priority 2004, dated 2010) can be followed below.

`COCCOc1ccc2c(C#N)c(-c3ccc(C(=O)NC4CCC4)cc3)n(C3CCC3)c2c1` [Compound 2759]: the melting point fell in the range of 199 to 200 °C. The same measure for `COCCOc1ccc2c(C#N)c(-c3ccc(C(=O)NC4CC4)cc3)n(C3CCC3)c2c1` [Compound 2760]: 228 to 230 °C; for `Cc1nccc(Oc2ccc3c(C#N)c(-c4ccc(NC(=O)NC(C)C)cc4)n(C4CCC4)c3c2)n1` [Compound 2761]: 240 to 245 °C; for `CC(C)NC(=O)Nc1ccc(-c2c(C#N)c3ccc(Oc4ccc(Cl)nn4)cc3n2C2CCC2)cc1` [Compound 2762]: 264 to 269 °C. With `CC(C)(C)OC(=O)Nc1ccc(-c2c(C#N)c3ccc(N4CCOCC4)cc3n2C2CCC2)cc1` [Compound 2764], the melting point is 218 to 220 °C. In turn, `N#Cc1c(-c2ccc(NS(=O)(=O)C3CC3)cc2)n(CC2CC2)c2cc(OC3CCOCC3)ccc12` [Compound 2768] came in with a melting point of 99 to 102 °C. On to `N#Cc1c(-c2ccc(NS(=O)(=O)C3CC3)cc2)n(C2CCC2)c2ccc(OC3COCOC3)cc12` [Compound 2775], for which the melting point was 199 to 203 °C. `CCCS(=O)(=O)Nc1ccc(-c2c(C#N)c3cc(OC4COCOC4)ccc3n2C2CCC2)cc1` [Compound 2776] registered a melting point of 183 to 184 °C. Then `CC(C)(C)OC(=O)Nc1ccc(-c2c(C#N)c3ccc(N4CCSCC4)cc3n2C2CCC2)cc1` [Compound 2777], with 191 °C (dec.); and `C[C@@H](OC(=O)Nc1ccc(-c2c(C#N)c3ccc(C(=O)O)cc3n2C2CCC2)cc1)C1CC1` [Compound 2778], with 222 to 225 °C. The same measure for `CCOC(CCOc1ccc2c(C#N)c(-c3ccc(NC(=O)OC(C)C)cc3)n(C3CCC3)c2c1)OCC` [Compound 2779]: 146 to 150 °C; for `CCNC(=O)Oc1ccc(-c2c(C#N)c3ccc(OC4CCOCC4)cc3n2CC2CC2)cc1` [Compound 2780]: 155 to 156 °C; for `CCCNC(=O)Oc1ccc(-c2c(C#N)c3ccc(OC4CCOCC4)cc3n2CC2CC2)cc1` [Compound 2781]: 147 to 148 °C. On to `CC(C)NC(=O)Oc1ccc(-c2c(C#N)c3ccc(OC4CCOCC4)cc3n2CC2CC2)cc1` [Compound 2782], for which the melting point is 161 to 163 °C. The same measure for `CCCCNC(=O)Oc1ccc(-c2c(C#N)c3ccc(OC4CCOCC4)cc3n2CC2CC2)cc1` [Compound 2783]: 146 to 147 °C; for `N#Cc1c(-c2ccc(OC(=O)NC3CCCC3)cc2)n(CC2CC2)c2cc(OC3CCOCC3)ccc12` [Compound 2784]: 169 to 171 °C.

For the compound `N#Cc1c(-c2ccc(OC(=O)NC3CCCCC3)cc2)n(CC2CC2)c2cc(OC3CCOCC3)ccc12` [Compound 2785], the melting point was in the range of 158 to 160 °C.

`CC(C)NS(=O)(=O)Nc1ccc(-c2c(C#N)c3ccc(OC4CCOCC4)cc3n2C2CCC2)cc1` [Compound 2786] yielded a melting point of 183 to 185 °C. Then `C[C@@H](OC(=O)Nc1ccc(-c2c(C#N)c3ccc(C(=O)N4CCCCC4)cc3n2C2CCC2)cc1)C1CC1` [Compound 2787], with 148 to 150 °C; and `C[C@@H](OC(=O)Nc1ccc(-c2c(C#N)c3ccc(C(=O)N4CCCC4)cc3n2C2CCC2)cc1)C1CC1` [Compound 2788], with 124 to 127 °C. Consider `N#Cc1c(-c2ccc(OC[C@H]3CCCO3)cc2)n(CC2CC2)c2cc(OC3CCOCC3)ccc12` [Compound 2789], for which the melting point lay in the range of 133 to 134 °C. The same measure for `N#Cc1c(-c2ccc(OC(=O)N3CCOCC3)cc2)n(CC2CC2)c2cc(OC3CCOCC3)ccc12` [Compound 2790]: 188 to 189 °C. For the compound `COCCN(C)C(=O)c1ccc2c(C#N)c(-c3ccc(NC(=O)O[C@H](C)C4CC4)cc3)n(C3CCC3)c2c1` [Compound 2791], the melting point lay within 96 to 98 °C.

`COCCCNC(=O)c1ccc2c(C#N)c(-c3ccc(NC(=O)O[C@H](C)C4CC4)cc3)n(C3CCC3)c2c1` [Compound 2792] gave a melting point of 90 to 94 °C.

For orientation: melting point means the temperature, or range, at which the solid turns liquid.
